According to US20230233569A1 (Revolution Medicines, Inc., priority 2020, published 2023):
Like-named read-outs stand apart in the source and are kept apart here.

How the values were obtained:
KRAS G12V = KRAS G12V (Homo sapiens, UniProt P01116+P62937, G12V); assay: Disruption of BRAF RBD interaction with Ras (FRET / MOA assay, with Cyclophilin A); assay type: biochemical; conditions: KRAS G12V; read-out: KRAS G12V FRET data IC50
Outline: (§1)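 Biochemical TR-FRET disruption assay: nucleotide-loaded K-Ras with Cyclophilin A and a BRAF RBD construct, compound titrated over 10 points from 30 μM (final).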

KRAS G12C = KRAS G12C (Homo sapiens, UniProt P01116+P62937, G12C); assay: as above; assay type: biochemical; conditions: read-out: KRAS G12C FRET data, IC50
KRAS G12C, sequence (P01116 1-169 isoform P01116-2 G12C): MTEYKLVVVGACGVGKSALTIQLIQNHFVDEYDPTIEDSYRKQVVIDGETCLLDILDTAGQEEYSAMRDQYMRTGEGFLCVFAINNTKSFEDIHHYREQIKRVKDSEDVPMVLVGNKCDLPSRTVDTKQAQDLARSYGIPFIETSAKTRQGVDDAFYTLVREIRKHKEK
KRAS G12C, sequence (P62937 whole entry): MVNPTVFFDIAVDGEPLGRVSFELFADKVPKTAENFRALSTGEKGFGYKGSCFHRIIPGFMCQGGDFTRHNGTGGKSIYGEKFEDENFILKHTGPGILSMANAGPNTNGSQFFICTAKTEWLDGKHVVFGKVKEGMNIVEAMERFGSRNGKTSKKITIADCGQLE
Outline: as §1

KRAS WT = KRAS WT (Homo sapiens, UniProt P01116+P62937); assay: as above; assay type: biochemical; conditions: KRAS WT; read-out: KRAS WT FRET data IC50
KRAS WT, sequence (P01116 1-169 isoform P01116-2 limits assumed): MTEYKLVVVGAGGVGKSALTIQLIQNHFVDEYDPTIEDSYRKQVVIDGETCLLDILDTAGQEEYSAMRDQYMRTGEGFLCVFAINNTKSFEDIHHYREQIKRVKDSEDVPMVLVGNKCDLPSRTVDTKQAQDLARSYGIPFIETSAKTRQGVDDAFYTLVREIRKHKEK
KRAS WT, sequence (P62937 whole entry): as the sequence (P62937 whole entry) above
Outline: as §1

NRAS G12C = NRAS G12C (Homo sapiens, UniProt P01111+P62937, G12C); assay: as above; assay type: biochemical; conditions: NRAS G12C; read-out: NRAS G12C FRET data IC50
NRAS G12C, sequence (P01111 whole entry G12C): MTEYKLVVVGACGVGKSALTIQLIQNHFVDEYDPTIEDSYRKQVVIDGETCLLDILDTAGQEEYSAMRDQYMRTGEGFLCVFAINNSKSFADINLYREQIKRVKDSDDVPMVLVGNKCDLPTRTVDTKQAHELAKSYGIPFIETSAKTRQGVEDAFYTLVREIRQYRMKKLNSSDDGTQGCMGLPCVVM
NRAS G12C, sequence (P62937 whole entry): as the sequence (P62937 whole entry) above

KRAS G12S = KRAS G12S (Homo sapiens, UniProt P01116+P62937, G12S); assay: as above; assay type: biochemical; conditions: read-out: KRAS G12S FRET data, IC50
KRAS G12S, sequence (P01116 1-169 isoform P01116-2 G12S limits assumed): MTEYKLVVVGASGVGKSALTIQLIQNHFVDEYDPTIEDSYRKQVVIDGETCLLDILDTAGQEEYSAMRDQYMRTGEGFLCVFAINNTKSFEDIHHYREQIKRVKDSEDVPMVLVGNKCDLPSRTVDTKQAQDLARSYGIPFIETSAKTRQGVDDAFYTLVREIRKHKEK
KRAS G12S, sequence (P62937 whole entry): as the sequence (P62937 whole entry) above
Outline: as §1

KRAS G13C = KRAS G13C (Homo sapiens, UniProt P01116+P62937, G13C); assay: as above; assay type: biochemical; conditions: read-out: KRAS G13C FRET data, IC50
KRAS G13C, sequence (P01116 1-169 isoform P01116-2 G13C): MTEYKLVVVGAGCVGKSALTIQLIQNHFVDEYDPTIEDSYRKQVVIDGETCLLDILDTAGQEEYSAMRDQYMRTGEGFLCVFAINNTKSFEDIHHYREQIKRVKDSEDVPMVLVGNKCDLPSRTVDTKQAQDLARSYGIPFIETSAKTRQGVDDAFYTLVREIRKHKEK
KRAS G13C, sequence (P62937 whole entry): as the sequence (P62937 whole entry) above
Outline: as §1

KRAS G12D = KRAS G12D (Homo sapiens, UniProt P01116+P62937, G12D); assay: as above; assay type: biochemical; conditions: read-out: KRAS G12D FRET data, IC50
KRAS G12D, sequence (P01116 1-169 isoform P01116-2 G12D limits assumed): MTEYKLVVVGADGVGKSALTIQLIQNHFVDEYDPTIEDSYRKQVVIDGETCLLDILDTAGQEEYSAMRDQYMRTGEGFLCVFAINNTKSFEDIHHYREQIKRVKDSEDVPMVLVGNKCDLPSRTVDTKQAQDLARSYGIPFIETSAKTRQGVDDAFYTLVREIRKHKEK
KRAS G12D, sequence (P62937 whole entry): as the sequence (P62937 whole entry) above
Outline: as §1

KRAS G13D = KRAS G13D (Homo sapiens, UniProt P01116+P62937, G13D); assay: as above; assay type: biochemical; conditions: KRAS G13D; read-out: KRAS G13D FRET data IC50
KRAS G13D, sequence (P01116 1-169 isoform P01116-2 G13D limits assumed): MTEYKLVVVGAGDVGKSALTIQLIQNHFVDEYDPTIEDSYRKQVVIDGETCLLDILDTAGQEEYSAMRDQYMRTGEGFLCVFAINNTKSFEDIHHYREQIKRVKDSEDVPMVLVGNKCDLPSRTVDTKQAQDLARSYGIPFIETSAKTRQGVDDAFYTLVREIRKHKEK
KRAS G13D, sequence (P62937 whole entry): as the sequence (P62937 whole entry) above
Outline: as §1

NRAS Q61K = NRAS Q61K (Homo sapiens, UniProt P01111+P62937, Q61K); assay: as above; assay type: biochemical; conditions: NRAS Q61K; read-out: NRAS Q61K FRET data IC50
NRAS Q61K, sequence (P01111 whole entry Q61K): as the sequence (P01111 whole entry G12C) above, with C12G, Q61K counted along it
NRAS Q61K, sequence (P62937 whole entry): as the sequence (P62937 whole entry) above
Outline: (§2)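 TR-FRET in 25 mM HEPES pH 7.3, 100 mM NaCl, 5 mM MgCl2, 0.1% BSA: 25 μM Cyclophilin A, 12.5 nM His6-Ras-GMPPNP, 50 nM GST-BRAF RBD with compound (10-point 3-fold series from 30 μM), 3 h at 25° C. Anti-His Eu/anti-GST APC added, 1.5 h more; IC50 from decreased FRET ratio versus DMSO.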

KRAS Q61H = KRAS Q61H (Homo sapiens, UniProt P01116+P62937, Q61H); assay: as above; assay type: biochemical; conditions: KRAS Q61H; read-out: KRAS Q61H FRET data IC50
KRAS Q61H, sequence (P01116 1-169 isoform P01116-2 Q61H limits assumed): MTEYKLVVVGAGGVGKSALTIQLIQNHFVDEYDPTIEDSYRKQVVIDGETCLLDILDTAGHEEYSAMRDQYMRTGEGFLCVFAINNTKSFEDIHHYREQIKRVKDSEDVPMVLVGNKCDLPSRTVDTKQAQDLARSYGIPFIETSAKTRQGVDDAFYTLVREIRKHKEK
KRAS Q61H, sequence (P62937 whole entry): as the sequence (P62937 whole entry) above
Outline: as §2

NRAS WT = NRAS WT (Homo sapiens, UniProt P01111+P62937); assay: as above; assay type: biochemical; conditions: NRAS WT; read-out: NRAS WT FRET data IC50
NRAS WT, sequence (P01111 whole entry): as the sequence (P01111 whole entry G12C) above, with C12G counted along it
NRAS WT, sequence (P62937 whole entry): as the sequence (P62937 whole entry) above
Outline: as §2

NRAS Q61R = NRAS Q61R (Homo sapiens, UniProt P01111+P62937, Q61R); assay: as above; assay type: biochemical; conditions: NRAS Q61R; read-out: NRAS Q61R FRET data IC50
NRAS Q61R, sequence (P01111 whole entry Q61R): as the sequence (P01111 whole entry G12C) above, with C12G, Q61R counted along it
NRAS Q61R, sequence (P62937 whole entry): as the sequence (P62937 whole entry) above
Outline: as §2

Capan-1 (K-Ras G12V) = assay: CellTiter-Glo cell viability assay, 5-day treatment; assay type: cell-based; conditions: Homo sapiens, CAPAN-1, 120 h
Outline: (§3)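 Luminescence read-out after 5 days of compound exposure, with plates first brought to room temperature for roughly 30 minutes. Values are percent of averaged DMSO wells, fitted by four-parameter logistic regression.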

NCI-H358 (K-Ras G12C) = assay: as above; assay type: cell-based; conditions: Homo sapiens, NCI-H358, 120 h
Outline: as §3

[1] = 5-day treatment, read-out: Capan-1 Cell Viability assay data (K-Ras G12V, IC50)
[2] = 5-day treatment, read-out: H358 Cell Viability assay data (K-Ras G12C, IC50)

KRAS G12V, sequence (P01116 1-169 isoform P01116-2 G12V limits assumed): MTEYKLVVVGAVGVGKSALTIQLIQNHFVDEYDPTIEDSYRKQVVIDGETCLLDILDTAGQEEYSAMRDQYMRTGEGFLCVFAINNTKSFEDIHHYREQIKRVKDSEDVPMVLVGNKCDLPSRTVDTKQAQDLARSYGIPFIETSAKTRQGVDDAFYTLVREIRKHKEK
KRAS G12V, sequence (P62937 whole entry): as the sequence (P62937 whole entry) above

SMILES	IC50 (KRAS G12V) [nM]	IC50 (KRAS G12C) [nM]	IC50 (KRAS WT) [nM]	IC50 (NRAS G12C) [nM]	IC50 (KRAS G12S) [nM]	IC50 (KRAS G13C) [nM]	IC50 (KRAS G12D) [nM]	IC50 (KRAS G13D) [nM]	IC50 (NRAS Q61K) [nM]	IC50 (KRAS Q61H) [nM]	IC50 (NRAS WT) [nM]	IC50 (NRAS Q61R) [nM]	IC50 (Capan-1 (K-Ras G12V); [1]) [µM]	IC50 (NCI-H358 (K-Ras G12C); [2]) [µM]	IC50 (Capan-1 (K-Ras G12V); read-out: Capan-1 Cell Viability assay data (K-Ras G12V, IC50, uM)) [µM]	IC50 (NCI-H358 (K-Ras G12C); read-out: H358 Cell Viability assay data (K-Ras G12C, IC50, uM), 5-day treatment) [µM]
CCn1c(-c2cccnc2[C@H](C)OC)c2c3cc(ccc31)-c1csc(n1)C[C@H](NC(=O)[C@H](C(C)C)N(C)C(=O)N1CC([C@H](C)CO)C1)C(=O)N1CCC[C@H](N1)C(=O)OCC(C)(C)C2 (atropisomer, axis not shown) [Example A478]	100 to 1000	10 to 100	100 to 1000	10 to 100	100 to 1000	100 to 1000	100 to 1000	100 to 1000	10 to 100	10 to 100	10 to 100	100 to 1000	0.01 to 0.1	< 0.01	–	–
CCn1c(-c2cccnc2[C@H](C)OC)c2c3cc(ccc31)-c1csc(n1)C[C@H](NC(=O)[C@H](C(C)C)N(C)C(=O)N1CC[C@H]1C(=O)NC)C(=O)N1CC(C)C[C@H](N1)C(=O)OCC(C)(C)C2 (stereo partly shown) [Example A282]	1000 to 10000	100 to 1000	1000 to 10000	100 to 1000	1000 to 10000	1000 to 10000	1000 to 10000	1000 to 10000	1000 to 10000	100 to 1000	1000 to 10000	1000 to 10000	0.1 to 1	0.1 to 1	–	–
CCn1c(-c2cccnc2[C@H](C)OC)c2c3cc(ccc31)-c1csc(n1)C[C@H](NC(=O)[C@H](C(C)C)N(C)C(=O)N1CC3(CC(N(C)CCOC)C3)C1)C(=O)N1CCC[C@H](N1)C(=O)OCC(C)(C)C2 (atropisomer, axis not shown) [Example A532]	100 to 1000	100 to 1000	100 to 1000	100 to 1000	100 to 1000	100 to 1000	1000 to 10000	100 to 1000	10 to 100	100 to 1000	100 to 1000	100 to 1000	0.01 to 0.1	0.01 to 0.1	–	–
CCn1c(-c2cccnc2[C@H](C)OC)c2c3cc(ccc31)-c1csc(n1)C[C@H](NC(=O)[C@H](C(C)C)N(C)C(=O)N1CC3CC(C1)N3C)C(=O)N1CCC[C@H](N1)C(=O)OCC(C)(C)C2 [Example A284]	1000 to 10000	100 to 1000	100 to 1000	100 to 1000	100 to 1000	100 to 1000	1000 to 10000	100 to 1000	100 to 1000	100 to 1000	100 to 1000	1000 to 10000	–	–	0.1 to 1	0.1 to 1
CCn1c(-c2cccnc2[C@H](C)OC)c2c3cc(ccc31)-c1csc(n1)C[C@H](NC(=O)[C@H](C(C)C)N(C)C(=O)N1CC(N(C)C)C1)C(=O)N1CCC[C@H](N1)C(=O)OCC(C)(C)C2 (racemic) [Example A170]	100 to 1000	100 to 1000	100 to 1000	100 to 1000	100 to 1000	100 to 1000	1000 to 10000	100 to 1000	10 to 100	100 to 1000	100 to 1000	100 to 1000	0.01 to 0.1	0.01 to 0.1	–	–
CCn1c(-c2cccnc2[C@H](C)OC)c2c3cc(ccc31)-c1csc(n1)C[C@H](NC(=O)[C@H](C(C)C)N(C)C(=O)N1CC3(CC(N4CCOCC4)C3)C1)C(=O)N1CCC[C@H](N1)C(=O)OCC(C)(C)C2 (atropisomer, axis not shown) [Example A486]	100 to 1000	100 to 1000	100 to 1000	100 to 1000	100 to 1000	100 to 1000	1000 to 10000	100 to 1000	10 to 100	100 to 1000	100 to 1000	100 to 1000	0.01 to 0.1	0.01 to 0.1	–	–
CCn1c(-c2cccnc2[C@H](C)OC)c2c3cc(ccc31)-c1csc(n1)C[C@H](NC(=O)[C@H](C(C)C)N(C)C(=O)N1C3CC1CN(C)C3)C(=O)N1CCC[C@H](N1)C(=O)OCC(C)(C)C2 [Example A541]	100 to 1000	100 to 1000	100 to 1000	100 to 1000	100 to 1000	100 to 1000	1000 to 10000	1000 to 10000	100 to 1000	100 to 1000	100 to 1000	100 to 1000	0.1 to 1	0.01 to 0.1	–	–
CCn1c(-c2cccnc2[C@H](C)OC)c2c3cc(ccc31)-c1csc(n1)C[C@H](NC(=O)[C@H](C(C)C)N(C)C(=O)N1CC3(CC(N(C)C)C3)C1)C(=O)N1CCC[C@H](N1)C(=O)OCC(C)(C)C2 (atropisomer, axis not shown) [Example A280]	100 to 1000	10 to 100	100 to 1000	10 to 100	100 to 1000	100 to 1000	100 to 1000	100 to 1000	10 to 100	10 to 100	100 to 1000	100 to 1000	0.01 to 0.1	0.01 to 0.1	–	–
CCn1c(-c2cccnc2[C@H](C)OC)c2c3cc(ccc31)-c1csc(n1)C[C@H](NC(=O)[C@H](C(C)C)N(C)C(=O)N1CC(n3nc(C)cc3C)C1)C(=O)N1CCC[C@H](N1)C(=O)OCC(C)(C)C2 [Example A297]	100 to 1000	100 to 1000	100 to 1000	100 to 1000	100 to 1000	100 to 1000	1000 to 10000	1000 to 10000	100 to 1000	100 to 1000	100 to 1000	100 to 1000	0.1 to 1	0.01 to 0.1	–	–
CCn1c(-c2cc(N3CCN(C)CC3)cnc2[C@H](C)OC)c2c3cc(ccc31)-c1csc(n1)C[C@H](NC(=O)[C@H](C(C)C)N(C)C(=O)[C@H]1CCNC1=O)C(=O)N1CCC[C@H](N1)C(=O)OCC(C)(C)C2 (single isomer, unassigned) [Example A449]	1000 to 10000	100 to 1000	100 to 1000	100 to 1000	1000 to 10000	100 to 1000	1000 to 10000	1000 to 10000	100 to 1000	100 to 1000	100 to 1000	100 to 1000	0.1 to 1	0.1 to 1	–	–
CCn1c(-c2cccnc2[C@H](C)OC)c2c3cc(ccc31)-c1csc(n1)C[C@H](NC(=O)[C@H](CC1CC1)N(C)C(=O)N1CC(OC)C1)C(=O)N1CCC[C@H](N1)C(=O)OCC(C)(C)C2 (atropisomer, axis not shown) [Example A578]	10 to 100	10 to 100	10 to 100	< 10	10 to 100	10 to 100	100 to 1000	10 to 100	10 to 100	10 to 100	10 to 100	10 to 100	0.1 to 1	0.01 to 0.1	–	–
